How the values were obtained:
Format in all cases: in vivo
[1] = tested on: green foxtail (Setaria viridis L.): SETVI; test: Test Example 1 pre-emergence herbicidal activity, SETVI; conditions: visually observed 20th to 23rd day after application
How it was run: (§1)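 Scoring was visual growth control (0 = untreated, 100 = complete kill) on days 20–23 post-application. Treatment came as a pre-emergence spray one day after sowing in upland soil, using wettable powder or emulsifiable concentrate diluted in 500 L/ha water at predetermined active-ingredient amounts.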

[2] = tested on: green foxtail (Setaria viridis L.), SETVI; test: Test Example 2 post-emergence (foliage treatment) herbicidal activity, SETVI; conditions: 63 g a.i./ha
How it was run: (§2)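 Foliar spray of formulated compound (500 L/ha dilution water, 0.1% v/v spreader) onto young potted plants at defined leaf stages. Scored 0-100% by visual inspection 20-23 d post-spray.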

[3] = tested on: wheat (Triticum aestivum L.), TRZAX; test: Test Example 2 post-emergence (foliage treatment) herbicidal activity, TRZAX; conditions: 63 g a.i./ha
How it was run: as §2

[4] = tested on: prickly sida (Sida spinosa L.), SIDSP; test: Test Example 2 post-emergence (foliage treatment) herbicidal activity, SIDSP; conditions: 63 g a.i./ha
How it was run: as §2

[5] = tested on: japanese ribbon wapato (Sagittaria pygmaea: SA GPY); test: Test Example 3 water application herbicidal activity (paddy), SAGPY; conditions: 63 g a.i./ha, water application under submerged condition, tubers planted, visually observed 14th day after application; 0 = untreated control, 100 = complete kill
How it was run: (§3)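 Flooded paddy-soil pots in greenhouse; ECHOR and SCPJO sown, SAGPY tubers planted a day later, compound applied into 3–4 cm water at weeds' 0.5-leaf stage. Rice transplanted at 2-leaf stage, treated day 4 after transplanting. Visual growth control 0–100% at 14 days (weeds) and 21 days (rice) after application.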

[6] = tested on: barnyardgrass (Echinochloa crus-galli L.), ECHCG; test: Test Example 2 post-emergence (foliage treatment) herbicidal activity, ECHCG; conditions: 63 g a.i./ha
How it was run: (§4)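 Visual rating of growth control, from 0 (untreated-like) to 100 (complete kill), was done 20–23 days after post-emergence spraying. Wettable powder or emulsifiable concentrate was diluted to 500 L/ha with 0.1% (v/v) spreader. Leaf stages at application were 1.1-2.1 (ECHCG), 1.0-2.0 (DIGSA), 0.1-1.5 (AMARE) and 1.0-2 (ORYSA).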

[7] = tested on: wheat (Triticum aestivum L.): TRZAX; test: Test Example 1 pre-emergence herbicidal activity, TRZAX; conditions: visually observed 20th to 23rd day after application
How it was run: as §1

[8] = tested on: corn (Zea mays L.): ZEAMX; test: Test Example 1 pre-emergence herbicidal activity, ZEAMX; conditions: visually observed 20th to 23rd day after application
How it was run: as §1

[9] = tested on: crabgrass (Digitaria sanguinalis L.), DIGSA; test: Test Example 2 post-emergence (foliage treatment) herbicidal activity, DIGSA; conditions: 63 g a.i./ha
How it was run: as §4

[10] = tested on: velvetleaf (Abutilon theophrasti), ABUTH; test: Test Example 2 post-emergence (foliage treatment) herbicidal activity, ABUTH; conditions: 63 g a.i./ha
How it was run: as §2

[11] = tested on: soybean (Glycine max Merr.): GLXMA; test: Test Example 1 pre-emergence herbicidal activity, GLXMA; conditions: visually observed 20th to 23rd day after application
How it was run: as §1

[12] = tested on: velvetleaf (Abutilon theophrasti): ABUTH; test: Test Example 1 pre-emergence herbicidal activity, ABUTH; conditions: visually observed 20th to 23rd day after application
How it was run: as §1

[13] = tested on: soybean (Glycine max Merr.), GLXMA; test: Test Example 2 post-emergence (foliage treatment) herbicidal activity, GLXMA; conditions: 63 g a.i./ha
How it was run: as §2

[14] = tested on: japanese bulrush (Scirpus juncoides: SCPJO); test: Test Example 3 water application herbicidal activity (paddy), SCPJO; conditions: 63 g a.i./ha, water application under submerged condition at 0.5 leaf stage, visually observed 14th day after application; 0 = untreated control, 100 = complete kill
How it was run: as §3

[15] = tested on: barnyardgrass (Echinochiloa oryzicola: ECHOR); test: Test Example 3 water application herbicidal activity (paddy), ECHOR; conditions: 63 g a.i./ha, water application under submerged condition at 0.5 leaf stage, visually observed 14th day after application; 0 = untreated control, 100 = complete kill
How it was run: as §3

[16] = tested on: rice (Oryza sativa L.: ORYSA); test: Test Example 3 water application herbicidal activity (paddy), transplanted rice ORYSA; conditions: 63 g a.i./ha, water application 4th day after transplantation of 2 leaf stage rice, visually observed 21st day after application; 0 = untreated control, 100 = complete kill
How it was run: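 Submerged application in flooded paddy soil (3–4 cm water); weeds treated at 0.5-leaf stage, transplanted rice 4 d after transplanting. Scored visually as % growth control: weeds at 14 d, rice at 21 d.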

[17] = tested on: barnyardgrass (Echinochloa crus-galli L.): ECHCG; test: Test Example 1 pre-emergence herbicidal activity, ECHCG; conditions: visually observed 20th to 23rd day after application
How it was run: as §1

[18] = tested on: redroot pigweed (Amaranthus retroflexus L.): AMARE; test: Test Example 1 pre-emergence herbicidal activity, AMARE; conditions: visually observed 20th to 23rd day after application
How it was run: as §1

[19] = tested on: crabgrass (Digitaria sanguinalis L.): DIGSA; test: Test Example 1 pre-emergence herbicidal activity, DIGSA; conditions: visually observed 20th to 23rd day after application
How it was run: as §1

[20] = tested on: corn (Zea mays L.), ZEAMX; test: Test Example 2 post-emergence (foliage treatment) herbicidal activity, ZEAMX; conditions: 63 g a.i./ha
How it was run: as §2

[21] = tested on: rice (Oryza sativa L.): ORYSA; test: Test Example 1 pre-emergence herbicidal activity, ORYSA; conditions: visually observed 20th to 23rd day after application
How it was run: as §1

[22] = tested on: rice (Oryza sativa L.), ORYSA; test: Test Example 2 post-emergence (foliage treatment) herbicidal activity, ORYSA; conditions: 63 g a.i./ha
How it was run: as §4

[23] = tested on: prickly sida (Sida spinosa L.): SEDSP; test: Test Example 1 pre-emergence herbicidal activity, SIDSP; conditions: visually observed 20th to 23rd day after application
How it was run: as §1

[24] = tested on: redroot pigweed (Amaranthus retroflexus L.), AMARE; test: Test Example 2 post-emergence (foliage treatment) herbicidal activity, AMARE; conditions: 63 g a.i./ha
How it was run: as §4

| SMILES | Pre-emergence Herbicidal Activity SETVI (growth controlling degree) ([1]; Rate 63 g a.i./ha) [%] | growth controlling degree, SETVI [2] [%] | growth controlling degree, TRZAX [3] [%] | growth controlling degree, SIDSP [4] [%] | growth controlling degrees (%) SAGPY [5] [%] | growth controlling degree, ECHCO [6] [%] | Pre-emergence Herbicidal Activity TRZAX (growth controlling degree) ([7]; Rate 63 g a.i./ha) [%] | Pre-emergence Herbicidal Activity ZEAMX (growth controlling degree) ([8]; Rate 63 g a.i./ha) [%] | growth controlling degree, DIGSP [9] [%] | growth controlling degree, ABUTH [10] [%] | Pre-emergence Herbicidal Activity GLXMA (growth controlling degree) ([11]; Rate 63 g a.i./ha) [%] | Pre-emergence Herbicidal Activity ABUTH (growth controlling degree) ([12]; Rate 63 g a.i./ha) [%] | growth controlling degree, GLXMA [13] [%] | growth controlling degrees (%) SCPJO [14] [%] | growth controlling degrees (%) ECHOR [15] [%] | growth controlling degrees (%) ORYSA [16] [%] | Pre-emergence Herbicidal Activity ECHCG (growth controlling degree) ([17]; Rate 63 g a.i./ha) [%] | growth controlling degree, ZEAMX [20] [%] | growth controlling degree, ORYSA [22] [%] | growth controlling degree, AMARE [24] [%] | further results |
| --- | --- | --- | --- | --- | --- | --- | --- | --- | --- | --- | --- | --- | --- | --- | --- | --- | --- | --- | --- | --- | --- |
| COc1c(Cl)cc(F)c(-c2nn(C)c(OC(F)F)c2Cl)c1NC(=O)c1ccccc1C(F)(F)F [Compound 1-25] | 95 | 100 | 40 | 100 | 100 | 98 | 0 | 0 | 100 | 100 | 0 | 100 | 98 | 95 | 98 | 60 | 60 | 90 | 90 | 100 | Pre-emergence Herbicidal Activity AMARE (growth controlling degree) ([18]; Rate 63 g a.i./ha): 100%; Pre-emergence Herbicidal Activity DIGSP (growth controlling degree) ([19]; Rate 63 g a.i./ha): 98%; Pre-emergence Herbicidal Activity ORYSA (growth controlling degree) ([21]; Rate 63 g a.i./ha): 40%; Pre-emergence Herbicidal Activity SIDSP (growth controlling degree) ([23]; Rate 63 g a.i./ha): 100% |
| COc1c(Cl)cc(F)c(-c2nn(C)c(OC(F)F)c2Cl)c1N(C(=O)CCc1ccccc1)C(=O)CCc1ccccc1 [Compound 1-18] | – | 80 | 10 | 100 | 50 | 70 | – | – | 70 | 100 | – | – | 60 | 40 | 100 | 30 | – | 60 | 60 | 100 | Pre-emergence Herbicidal Activity SETVI (growth controlling degree) ([1]; Rate 125 g a.i./ha): 50%; Pre-emergence Herbicidal Activity TRZAX (growth controlling degree) ([7]; Rate 125 g a.i./ha): 30%; Pre-emergence Herbicidal Activity ZEAMX (growth controlling degree) ([8]; Rate 125 g a.i./ha): 0%; Pre-emergence Herbicidal Activity GLXMA (growth controlling degree) ([11]; Rate 125 g a.i./ha): 20%; Pre-emergence Herbicidal Activity ABUTH (growth controlling degree) ([12]; Rate 125 g a.i./ha): 40%; Pre-emergence Herbicidal Activity ECHCG (growth controlling degree) ([17]; Rate 125 g a.i./ha): 70%; Pre-emergence Herbicidal Activity AMARE (growth controlling degree) ([18]; Rate 125 g a.i./ha): 100%; Pre-emergence Herbicidal Activity DIGSP (growth controlling degree) ([19]; Rate 125 g a.i./ha): 98%; Pre-emergence Herbicidal Activity ORYSA (growth controlling degree) ([21]; Rate 125 g a.i./ha): 50%; Pre-emergence Herbicidal Activity SIDSP (growth controlling degree) ([23]; Rate 125 g a.i./ha): 60% |
| COc1c(Cl)cc(F)c(-c2nn(C)c(OC(F)F)c2Cl)c1NC(=O)c1cccc(Br)c1 [Compound 1-27] | 80 | 100 | 30 | 70 | 98 | 100 | 0 | 0 | 100 | 100 | 20 | 70 | 70 | 70 | 100 | 50 | 30 | 60 | 80 | 100 | Pre-emergence Herbicidal Activity AMARE (growth controlling degree) ([18]; Rate 63 g a.i./ha): 100%; Pre-emergence Herbicidal Activity DIGSP (growth controlling degree) ([19]; Rate 63 g a.i./ha): 100%; Pre-emergence Herbicidal Activity ORYSA (growth controlling degree) ([21]; Rate 63 g a.i./ha): 20%; Pre-emergence Herbicidal Activity SIDSP (growth controlling degree) ([23]; Rate 63 g a.i./ha): 80% |
